We go through one compound from patent publication US5663186A, “Treatment of atherosclerosis with angiotensin II receptor blocking imidazoles” (Merck & Co., Inc., priority 1995, dated 1997).

The structures appear in SMILES notation.

The subject of the test is patients with mild to moderate hypertension. Put plainly: Clinical study: total cholesterol. The class given is in vivo. How it is done:
The total, HDL, LDL and VLDL cholesterol levels were measured using the procedures described below:
Cholesterol esters in the sample are hydrolyzed by cholesterol esterase to cholesterol and free fatty acids. The cholesterol produced in the reaction plus the free cholesterol present in the sample, are oxidized by cholesterol oxidase to form cholesten-3-one and hydrogen peroxide. Peroxidase catalyzes the hydrogen peroxide oxidation and 4-aminoantipyrine(4-AAP) and phenol with subsequent coupling to 3,4-dichlorophenol. The end product is a quinoneimine dye which is read at a primary wavelength of 520 nm. The color formation is proportional to the concentration of cholesterol present. This absorbance value is then compared to the absorbance by a known calibrator. The result is then printed out directly in mg/dL.

Consider `CCCCc1nc(Cl)c(CO)n1Cc1ccc(-c2ccccc2-c2nnn[nH]2)cc1.[K]` [Losartan, 2-n-butyl-4-chloro-1-[(2'-(tetrazol-5-yl)-1,1'-biphenyl-4-yl)-methyl]-1H-imidazole-5-methanol potassium salt], for which the “TOTAL CHOLESTEROL, CHANGE MEAN” value was -3.9 mg/dL (LOS 50, week 12, N 107, change from baseline 211.1) and -7.9 mg/dL (LOS 50/100, week 12, N 106, change from baseline 212.6). The “TOTAL CHOLESTEROL, TREATMENT MEAN” value runs as follows: (LOS 50, week 12, N 107, oral once daily) 207.3 mg/dL; (LOS 50/100, week 12, N 106) 204.8 mg/dL.
